Consider ten molecules from BindingDB's records for doi:10.1016/s0960-894x(00)00080-9 (Granada, 2000).

Sequence of Choline kinase (Saccharomyces cerevisiae) (P20485 whole entry, looked up): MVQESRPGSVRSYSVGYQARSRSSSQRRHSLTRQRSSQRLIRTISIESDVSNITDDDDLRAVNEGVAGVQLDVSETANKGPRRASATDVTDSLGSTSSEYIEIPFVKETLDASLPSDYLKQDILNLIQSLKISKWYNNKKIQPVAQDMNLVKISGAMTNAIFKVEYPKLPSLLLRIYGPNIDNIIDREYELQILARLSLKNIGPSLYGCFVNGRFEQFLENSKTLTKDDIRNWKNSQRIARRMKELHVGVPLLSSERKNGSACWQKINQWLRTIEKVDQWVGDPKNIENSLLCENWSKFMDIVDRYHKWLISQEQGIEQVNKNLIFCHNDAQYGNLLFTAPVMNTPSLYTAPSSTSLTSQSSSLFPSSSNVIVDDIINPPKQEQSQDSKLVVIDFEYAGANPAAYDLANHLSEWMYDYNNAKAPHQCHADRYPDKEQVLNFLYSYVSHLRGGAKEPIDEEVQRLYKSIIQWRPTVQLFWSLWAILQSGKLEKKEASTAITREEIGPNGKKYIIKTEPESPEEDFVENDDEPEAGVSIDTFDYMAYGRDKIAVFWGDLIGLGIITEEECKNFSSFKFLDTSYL

The assay has as its target Choline kinase (Saccharomyces cerevisiae) (UniProt P20485). Description: Compound was tested […] for inhibition against purified choline kinase obtained from yeast.
For the molecule `C[N+](C)=c1ccn(Cc2ccc(CCc3ccc(Cn4ccc(=[N+](C)C)cc4)cc3)cc2)cc1` [4N,4N-dimethyl-1-{4-[4-(4-dimethylamino-1-pyridiniumylmethyl)phenethyl]benzyl}-4-pyridiniumamine dibromide], half-maximal inhibition (IC50) required 17 µM. In other words, the double-digit micromolar range.
The same measure for `OCc1cc[n+](Cc2ccc(CCc3ccc(C[n+]4ccc(CO)cc4)cc3)cc2)cc1` [1-{4-[4-(4-hydroxymethyl-1-pyridiniumylmethyl)phenethyl]benzyl}-4-pyridiniumylmethanol dibromide]: 100 µM; for `C=CC[N+](CC=C)=c1ccn(Cc2ccc(CCc3ccc(Cn4ccc(=[N+](CC=C)CC=C)cc4)cc3)cc2)cc1` [4N,4N-diallyl-1-{4-[4-(4-diallylamino-1-pyridiniumylmethyl)phenethyl]benzyl}-4-pyridiniumamine dibromide]: 17 µM.
For the molecule `O=C(O)c1cc[n+](Cc2ccc(CCc3ccc(C[n+]4ccc(C(=O)O)cc4)cc3)cc2)cc1` [1-{4-[4-(4-carboxy-1-pyridiniumylmethyl)phenethyl]benzyl}-4-pyridiniumcarboxylic acid dibromide], half-maximal inhibition (IC50) was put at 137 µM.
The value for `c1cc(Cn2ccc(=[N+]3CCCC3)cc2)ccc1CCc1ccc(Cn2ccc(=[N+]3CCCC3)cc2)cc1` [1,2-di[4-(4-tetrahydro-1H-1-pyrrolyl-1-pyridiniumylmethyl)phenyl]ethane dibromide] was 20 µM; that for `N=c1ccn(Cc2ccc(CCc3ccc(Cn4ccc(=N)cc4)cc3)cc2)cc1` [1-{4-[4-(4-amino-1-pyridiniumylmethyl)phenethyl]benzyl}-4-pyridiniumamine dibromide] was 23 µM; that for `c1cc(Cn2ccc(=[N+]3CCCCC3)cc2)ccc1CCc1ccc(Cn2ccc(=[N+]3CCCCC3)cc2)cc1` [1,2-di[4-(4-hexahydro-1-pyridinyl-1-pyridiniumylmethyl)phenyl]ethane dibromide] was 9.6 µM.
The same measure for `Cc1cc[n+](Cc2ccc(CCc3ccc(C[n+]4ccc(C)cc4)cc3)cc2)cc1` [1,2-di[4-(4-methyl-1-pyridiniumylmethyl)phenyl]ethane dibromide]: 100 µM; for `N#Cc1cc[n+](Cc2ccc(CCc3ccc(C[n+]4ccc(C#N)cc4)cc3)cc2)cc1` [1-{4-[4-(4-cyano-1-pyridiniumylmethyl)phenethyl]benzyl}-4-pyridiniumcarbonitrile dibromide]: more than 1000 µM; for `c1cc(Cn2ccc(=[N+]3CCCCCC3)cc2)ccc1CCc1ccc(Cn2ccc(=[N+]3CCCCCC3)cc2)cc1` [1,2-di{4-[4-(1-azepanyl)-1-pyridiniumylmethyl]phenyl}ethane dibromide]: 15 µM.
